For data set [1], the target named is T1, Albumin (Homo sapiens, UniProt P02768). Put plainly: Binding affinity to human serum albumin by circular dichroism and UV/VIS spectroscopic method. The data set is classed as ADME. The note with it: isolated protein.
Data set [2] has as its target T1, Albumin. Put plainly: Binding affinity to human serum albumin on sepharose column by affinity chromatography. The data set is classed as ADME. The conditions noted are these: isolated protein.
Data set [3] concerns the target Alpha-1-acid glycoprotein 1 (Homo sapiens, UniProt P02763). Put plainly: Binding affinity to human ORM1 at 37 degC by induced circular dichroism method. In general terms: Circular dichroism is the unequal absorption of left and right circularly polarised light.
For data set [4], the species on record is Homo sapiens. Briefly: Displacement of quinaldine red from human AAG by fluorescence method.
Data set [5] is filed under the species Homo sapiens. Put plainly: Binding affinity to human AAG at 37 degC by induced circular dichroism method.
Data set [6] deals with Alpha-1-acid glycoprotein 2 (Homo sapiens, UniProt P19652). Put plainly: Binding affinity to human ORM2 at 37 degC by induced circular dichroism method.
Alpha-1-acid glycoprotein 2, sequence (P19652 whole entry): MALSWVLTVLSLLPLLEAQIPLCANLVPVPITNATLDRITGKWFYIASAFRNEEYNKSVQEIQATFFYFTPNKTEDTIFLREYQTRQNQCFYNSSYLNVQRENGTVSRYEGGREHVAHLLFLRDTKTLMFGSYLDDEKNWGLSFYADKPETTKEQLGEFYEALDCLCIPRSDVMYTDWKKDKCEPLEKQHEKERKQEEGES
For data set [7], the species on record is Homo sapiens. Briefly: Binding affinity to human AAG at 23 degC by induced circular dichroism method.
Data set [8] concerns the target T1, Albumin. Put plainly: Binding affinity to human serum albumin by fluorescence emission spectra. The data set is classed as ADME. The note with it: isolated protein.
Data set [9] is filed under the species Homo sapiens. Put plainly: Binding affinity to human AAG by fluorescence emission spectra.

T1 sequence (P02768 whole entry): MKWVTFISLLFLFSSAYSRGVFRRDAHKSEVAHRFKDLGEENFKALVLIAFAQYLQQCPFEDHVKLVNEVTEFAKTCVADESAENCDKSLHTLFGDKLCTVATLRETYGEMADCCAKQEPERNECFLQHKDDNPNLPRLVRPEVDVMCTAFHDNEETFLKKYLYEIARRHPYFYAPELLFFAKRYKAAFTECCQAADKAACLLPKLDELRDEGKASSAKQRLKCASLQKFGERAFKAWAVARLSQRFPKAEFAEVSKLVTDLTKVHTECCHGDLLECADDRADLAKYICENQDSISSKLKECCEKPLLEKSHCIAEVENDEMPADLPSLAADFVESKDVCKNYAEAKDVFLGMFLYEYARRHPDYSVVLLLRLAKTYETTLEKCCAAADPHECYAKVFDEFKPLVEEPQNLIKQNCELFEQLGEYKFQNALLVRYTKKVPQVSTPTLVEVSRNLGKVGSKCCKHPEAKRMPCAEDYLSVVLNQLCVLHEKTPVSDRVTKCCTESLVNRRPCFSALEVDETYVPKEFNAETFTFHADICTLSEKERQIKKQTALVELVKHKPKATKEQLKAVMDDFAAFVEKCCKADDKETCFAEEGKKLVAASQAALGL
Alpha-1-acid glycoprotein 1, sequence (P02763 whole entry): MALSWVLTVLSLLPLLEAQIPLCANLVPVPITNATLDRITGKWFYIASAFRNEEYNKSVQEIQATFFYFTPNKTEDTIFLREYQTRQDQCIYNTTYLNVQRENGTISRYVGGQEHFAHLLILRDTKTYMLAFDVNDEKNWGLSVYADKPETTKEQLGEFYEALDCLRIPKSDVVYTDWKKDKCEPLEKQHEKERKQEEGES

As to `CCN(CC)Cc1cc(Nc2ccnc3cc(Cl)ccc23)ccc1O.Cl`, the Ka is 6200 M⁻¹ at Albumin [1] and 2 10^4/M on Albumin [2].
Consider `CC(=O)O[C@H]1N=C(c2ccccc2Cl)c2cc(Cl)ccc2NC1=O`, for which, on Albumin [2], the Ka was 2 10^4/M.
On the same count and under the same terms, in the case of `CC(=O)O[C@@H]1N=C(c2ccccc2)c2cc(Cl)ccc2NC1=O` it was 8 10^4/M.
On to `CCN(CC)Cc1cc(Nc2ccnc3cc(Cl)ccc23)ccc1O.Cl.Cl.Cl`, for which the Ka in [3] is reported as 5.8 10^4/M.
For the molecule `CC(=O)O[C@@H]1N=C(c2ccccc2Cl)c2cc(Cl)ccc2NC1=O`, on Albumin [2], the Ka is given as 4 10^4/M.
The same measure, in the same setting: in the case of `CC(=O)O[C@H]1N=C(c2ccccc2)c2cc(Cl)ccc2NC1=O` it was 1 10^4/M.
As to `CC#C[C@]1(O)CC[C@H]2[C@@H]3CCC4=CC(=O)CCC4=C3[C@@H](c3ccc(N(C)C)cc3)C[C@@]21C`, in the data set listed under Homo sapiens [4], the Ka is 4 10^6/M.
Consider `CCN(CC)CCCC(C)Nc1c2ccc(Cl)cc2nc2ccc(OC)cc12` (stereo not given), for which the Ka in the data set listed under Homo sapiens [5] is 2.3 10^5/M.
As for `CCN(CC)Cc1cc(Nc2ccnc3cc(Cl)ccc23)ccc1O`, the Ka in the data set listed under Homo sapiens [5] is 4.8 10^4/M; in the data set listed under Homo sapiens [4] it was 1.1 10^5/M.
Take `CN(C)CCCN1c2ccccc2Sc2ccc(Cl)cc21`: the Ka in the data set filed under Homo sapiens [4] is 8.4 10^5/M.
Turning to `COc1cc(NC(C)CCCN)c2ncccc2c1` (stereo not given), the Ka in the data set listed under Homo sapiens [5] was 4.1 10^5/M; in the data set listed under Homo sapiens [4], 4.2 10^5/M.
As for `CC(C)NCC(O)COc1cccc2ccccc12` (racemic), in the data set listed under Homo sapiens [4], the Ka was 1.5 10^5/M.
Turning to `CCN(CC)CCCC(C)Nc1ccnc2cc(Cl)ccc12` (stereo not given) [CHLOROQUINE], the Ka is 0.3 10^5/M in the data set filed under Homo sapiens [4] and 2 10^3/M on Albumin [2].
For the molecule `OC(c1cc(C(F)(F)F)nc2c(C(F)(F)F)cccc12)C1CCCCN1` (stereo not given) [MEFLOQUINE], the Ka in the data set filed under Homo sapiens [4] is 8.7 10^5/M; on Albumin [2], 8 10^4/M.
On to `COc1cc(NC(C)CCCN)c2ncccc2c1.O=P(O)(O)O.O=P(O)(O)O` (stereo not given) [PRIMAQUINE PHOSPHATE], for which the Ka in [3] is recorded as 8 10^5/M.
For the molecule `COc1cc(NC(C)CCCN)c2ncccc2c1` (stereo not given) [PRIMAQUINE], on Albumin [2], the Ka was 7 10^3/M.
Take `CCN(CC)CCCC(C)Nc1c2ccc(Cl)cc2nc2ccc(OC)cc12.Cl.Cl` (stereo not given) [QUINACRINE DIHYDROCHLORIDE]: the Ka in [6] is recorded as 3.7 10^5/M.
For `CCN(CC)CCCC(C)Nc1c2ccc(Cl)cc2nc2ccc(OC)cc12` (stereo not given) [QUINACRINE], the Ka at Albumin [2] is 7 10^3/M.
On to `COc1cc(C)c2c(Oc3cccc(C(F)(F)F)c3)c(OC)cc(NC(C)CCCN)c2n1` (stereo not given) [TAFENOQUINE], for which the Ka in the data set filed under Homo sapiens [5] was 3.3 10^5/M; in the data set listed under Homo sapiens [7] it was 1.1 10^6/M; in the data set filed under Homo sapiens [4], 1.8 10^6/M; at Albumin [1] it was 24000 M⁻¹; at Albumin [8] it was 3 10^5/M; in the data set filed under Homo sapiens [9] it was 1.6 10^6/M. For the same molecule, the Ka on Albumin [2] is 3 10^5/M.

(Values after ChEMBL document CHEMBL1145548, “Selective plasma protein binding of antimalarial drugs to alpha1-acid glycoprotein” (Bioorg Med Chem, 2008).)
